Test results published in publication PMC3735429, “Plasmodium falciparum encodes a conserved active inhibitor-2 for Protein Phosphatase type 1: perspectives for novel anti-plasmodial therapy” (BMC Biology, 2013).
Like-named read-outs stand apart in the source and are kept apart here. No end group written: not given here.

Legend:
[1] = tested on: Plasmodium falciparum; conditions: ref [1]-[3]; cited from earlier work
Text: During its life cycle, Plasmodium falciparum, the deadliest malaria parasite for humans, undergoes several successive rounds of mitosis to amplify parasite populations and consequently to increase the rate of its transmission. Among the essential actors in the growth and division of the parasite are kinases and phosphatases. […] Subsequently, the identification of kinases and phosphatases and their central functions in P. falciparum[4-9] ...

[2] = tested on: 3D7 P. falciparum strain; assay: Growth inhibition assay of P. falciparum 3D7 (SYBR Green I, flow cytometry); assay type: cell-based, Plasmodium falciparum
Procedure: (§1) Assays were carried out in 96-well plates with a starting parasitemia of 0.5% at a haematocrit of 1% using SYBR Green I [81]. The peptides were added to the culture at different concentrations ranging from 80 μM to 1.25 μM (final concentrations) in a volume of 250 μl of RPMI-AlbuMAX (0.5%) and incubated for further 72 hr to allow all stages to complete at least one cycle. Cultures were stained for 30 minutes in the dark with SYBR Green I 1X (Invitrogen) diluted in 20 mM Tris pH8.8, 138 mM NaCl, and fixed with 1% paraformaldehyde. Fixed pRBC were stored at 4°C in the dark until flow cytometry analysis.
(§2) Parasite growth was assessed by flow cytometry on a FACSCalibur (Becton-Dickinson). Infected and uninfected erythrocytes were gated on the basis of their forward scatter (FSC) and side scatter (SSC) signals. Fluorescence analysis (Green fluorescence, FL-1 filter) was performed with CellQuest software (FACScan; BD Biosciences) on a total of 100,000 acquired events. Fluorescence was observed as described by Izumiyama et al.[82] on a two-parameters dot plot (FL1-SSC). Fluorescence of non-infected RBC was adjusted to plot between 10^0 and 10^1. Results are expressed in percentage of fluorescence among total RBC.
The drug concentration resulting in 50% inhibition of parasite growth (IC50) was assessed by determining the drug concentration corresponding to 50% of the parasitaemia observed in the peptide-free control wells. The IC50 value was calculated using the ICEstimator software based on a non-linear regression analysis of log-based dose–response curves. Results are presented as means ± sem.

[3] = tested on: HB3 P. falciparum strain; assay: Growth inhibition assay of P. falciparum HB3 (SYBR Green I, flow cytometry); assay type: cell-based, Plasmodium falciparum
Procedure: as §1
as §2, with “RBC. […]” for “RBC.”

[4] = biological target: His6-PfPP1 (Plasmodium falciparum)
[5] = tested on: PfPP1; assay: PfPP1 phosphatase activity assay with pNPP substrate; assay type: biochemical, Plasmodium falciparum; conditions: recombinant PfPP1 pre-incubated 30 min at 37°C with different concentrations of protein before pNPP; maximal effect; means of four independent experiments in duplicate
Procedure: The activity of PfPP1 with p-nitro-phenylphosphate (pNPP) was assayed as previously described. To investigate the role of PfI2 recombinant proteins or PfI2/PfI3 derived peptides on His6-PfPP1 activity, different amounts of proteins were added to 1 μg of PfPP1 recombinant protein and preincubated for 30 min at 37°C before testing the PfPP1 phosphatase activity. Okadaic acid was used as control (data not show). Results are presented as mean of increase or decrease of phosphatase activity in comparison to His6-PfPP1 incubated in the reaction buffer.

[6] = tested on: PfPP1; assay: Yeast two-hybrid PfI2-PfPP1 interaction; assay type: binding, Plasmodium falciparum; conditions: SD medium lacking leucine, tryptophan, histidine and adenine; 4 days
Text: The full length PfPP1 was cloned into the pGBKT7 vector containing the DNA binding domain of gal4 (Gal4-BD) and wild-type, deleted or mutated PfI2 (PfI2WT, PfI2(1–94), PfI2(19–144), PfI2W16A, PfI2Y103A) into pGADT7 containing the gal4 activation domain (Gal4-AD). The pGBKT7-Gal4-BD-PfPP1 construct was used to transform Y187 strain and maintained on SD media without tryptophan (SD-W). The pGADT7-Gal4-AD-PfI2 constructs were used to transform AH 109 strain and maintained on SD media lacking leucine (SD-L). Mating these two haploid strains results in the formation of diploid strain, which is viable on SD media lacking leucine and tryptophan (SD-LW). Interaction of PfPP1 with the different versions of PfI2 proteins were evaluated by their capacity to grow on selective media: SD medium lacking leucine, tryptophan and histidine (SD-LWH) and SD medium lacking leucine, tryptophan, histidine and adenine (SD-LWHA) for 4 days. Yeasts transformed with empty vector or with pGBKT7 laminine were used as controls.

[7] = tested on: Xenopus oocytes; assay: Induction of germinal vesicle breakdown (GVBD, G2/M transition) in microinjected Xenopus oocytes; assay type: cell-based; conditions: 100 ng injected; monitored 15 h; sets of 20 oocytes, repeated at least three times
Procedure: Preparation of Xenopus oocytes and microinjection experiments were performed as previously described. Briefly, in each assay, 20 oocytes removed from at least two or three different animals were microinjected with His6-PfI2 (wild type, deleted or mutated) recombinant proteins or PfI2/PfI3 derived peptides. […] Okadaic acid was used as a positive control for ability of oocytes to respond to PP inhibition (data not shown). Regarding the pre-injection experiments, deleted, mutated His6-PfI2 proteins or PfI2/PfI3 derived peptides were pre-injected (100 ng) in the oocytes 1 hour before the His6-PfI2WT injection (100 ng). GVBD was detected by the appearance of a white spot at the apex of the animal pole after 15 hours. Oocyte extracts were prepared as follow: oocytes were lysed in buffer (50 mM HEPES pH 7.4, 500 mM NaCl, 0.05% SDS, 0.5% Triton X100, 5 mM MgCl2, 1 mg/ml bovine serum albumin, 10 μg/ ml leupeptin, 10 μg/ml aprotinin, 10 μg/ml soybean trypsin inhibitor, 10 μg/ml benzamidine, 1 mM PMSF, 1 mM sodium vanadate) and centrifuged at 4°C for 15 min at 10,000 g. To detect His6-PfI2 proteins in injected extracts, electrophoresis followed by western-blot analysis performed on oocytes extracts. The membranes were developed with anti-His mAb antibody (Qiagen).

C=C1[C@@H](O)[C@@H]2O[C@]3(CC[C@H](/C=C/[C@@H](C)[C@@H]4CC(C)=C[C@@]5(O[C@H](C[C@@](C)(O)C(=O)O)CC[C@H]5O)O4)O3)CC[C@H]2O[C@@H]1[C@@H](O)C[C@H](C)[C@H]1O[C@@]2(CCCCO2)CC[C@H]1C [okadaic acid]
inhibition of parasite growth in vitro [1]: drastically inhibited parasite growth in vitro

VKKKKIKREIKIKKTISWKKTISW [P1]
IC50 ([2]; 3D7 strain, 72 h): 23.8 µM
IC50 ([3]; HB3 strain, 72 h): 15 µM

VKKKKIKREIKIKVVRWKVVRW [P5]
IC50 ([2]; 72 hr, 7 independent experiments, 3 batches of peptide, means ± sem, read-out: 3D7 IC50): 9.72 µM
parasite growth inhibition ([2]; at 80 μM, 72 hr, blood stage 3D7, means of seven independent experiments in duplicate): up to 90%
IC50 ([3]; 72 hr, 2 different batches, means ± sem, read-out: HB3 IC50): 8.79 µM

B1: His6-PfI2WT (natural protein)
chain: MKKKVDKSVTKKTISWDEVTINEQDKERGSRMKILEPNTPFNFILMDSASEDEASKYGDVKGSDEGQNNIADDLINKLNQLVEKQENKGVSNIDFKEKRKKHYNEYKMLQKLRKSGTLDDIDEEYKPDNKDSNCDNSNMNESEE
phosphatase activity of recombinant PfPP1 on pNPP after pre-incubation for 30 min at 37°C with different concentrations of PfI2WT; inhibition [4]: 80%

B2: PfI2WT: wild-type recombinant His-tagged P. falciparum inhibitor-2, 144 amino acids (protein)
chain: MKKKVDKSVTKKTISWDEVTINEQDKERGSRMKILEPNTPFNFILMDSASEDEASKYGDVKGSDEGQNNIADDLINKLNQLVEKQENKGVSNIDFKEKRKKHYNEYKMLQKLRKSGTLDDIDEEYKPDNKDSNCDNSNMNESEE
modifications: left off: His6, end not stated, kept
decrease in PfPP1 phosphatase activity [5]: up to 80%
growth of diploid yeast with PfPP1 on SD-LWHA (stringent conditions) [6]: still able to grow
GVBD induced [7]: ~ 85%
